Assay results reported in PMC7241567 (Journal of Enzyme Inhibition and Medicinal Chemistry, 2020).
Entries after “also recorded” stand apart in the source; their conditions may differ.

Legend:
Assay type in all cases: biochemical
[1] = test system: other kinases including FMS and cKit; experiment: Kinase panel screening, overall selectivity; details: 36 different kinases, single dose of 10 µM
Method: Next, we investigated kinase panel screening of 7d and 7b over 36 different kinases at a single dose of 10 µM (Figure 5). […] High selectivity over cKit might be an opportunity to avoid myelosuppression toxicity, which was reported from a dual FLT3/cKit inhibitor[19–22]. It is a valuable result to secure such a kinase selectivity profile considering the similarities of the same type III receptor tyrosine kinase (FMS, cKit and FLT3).
3. Evaluation of IC50 and Selected Kinase Profiling
We used Reaction Biology Corp. Kinase HotSpotSM service (www.reactionbiology.com) for IC50 determination of all compounds and kinase profile. Assay protocol: In a final reaction volume of 25 μL, Peptide substrate, [[…]], 5 µM, ATP 10 µM, FLT3(h) (5-10 […]
mU) is incubated with 25 mM Tris pH 7.5, 0.02 mM EGTA, 0.66 mg/mL myelin basic protein, 10 mM Mg Acetate and [γ-33P-ATP] (specific activity approx. 500 cpm/pmol, concentration as required). The reaction is initiated by the addition of the Mg-ATP mix. After incubation for 40 minutes at room temperature, the reaction is stopped by the addition of 5 μL of a 3% phosphoric acid solution. 10 μL of the reaction is then spotted onto a P30 filtermat and washed three times for 5 minutes in 75 mM phosphoric acid and once in methanol prior to drying and […]

[2] = biological target: T1, FLT3 (Homo sapiens, UniProt P36888); experiment: Reaction Biology Kinase HotSpot radiometric kinase assay; details: for IC50: FLT3 wild type, read-out: IC50 against FLT3
T1 construct: purchased Reaction Biology Corp. (Kinase HotSpot service)
T1 sequence (P36888 27-993): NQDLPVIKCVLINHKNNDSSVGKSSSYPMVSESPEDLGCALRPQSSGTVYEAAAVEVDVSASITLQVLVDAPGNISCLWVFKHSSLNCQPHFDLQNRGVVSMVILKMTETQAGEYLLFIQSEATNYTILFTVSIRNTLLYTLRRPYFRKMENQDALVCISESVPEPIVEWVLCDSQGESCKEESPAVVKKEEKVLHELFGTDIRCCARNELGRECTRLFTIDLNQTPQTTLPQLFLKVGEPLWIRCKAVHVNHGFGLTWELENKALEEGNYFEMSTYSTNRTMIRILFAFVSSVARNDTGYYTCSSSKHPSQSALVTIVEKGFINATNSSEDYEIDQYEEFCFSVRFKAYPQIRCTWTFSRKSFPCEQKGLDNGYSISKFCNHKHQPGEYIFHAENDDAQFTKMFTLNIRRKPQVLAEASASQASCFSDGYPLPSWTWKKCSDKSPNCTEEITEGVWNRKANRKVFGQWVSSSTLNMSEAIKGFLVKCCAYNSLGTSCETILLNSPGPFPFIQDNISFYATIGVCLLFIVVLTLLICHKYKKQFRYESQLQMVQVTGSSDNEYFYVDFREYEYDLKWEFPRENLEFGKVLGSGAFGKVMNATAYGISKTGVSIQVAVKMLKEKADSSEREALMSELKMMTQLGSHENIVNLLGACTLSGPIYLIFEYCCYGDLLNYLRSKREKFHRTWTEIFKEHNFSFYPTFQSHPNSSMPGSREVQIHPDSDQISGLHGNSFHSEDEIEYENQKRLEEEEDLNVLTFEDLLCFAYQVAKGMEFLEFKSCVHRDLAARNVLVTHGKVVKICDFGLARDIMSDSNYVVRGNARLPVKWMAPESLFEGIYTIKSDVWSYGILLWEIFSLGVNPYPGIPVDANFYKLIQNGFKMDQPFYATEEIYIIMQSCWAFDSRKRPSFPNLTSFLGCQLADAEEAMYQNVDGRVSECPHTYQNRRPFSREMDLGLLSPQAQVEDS

[3] = biological target: T2, ERK1 (Homo sapiens, UniProt P27361); experiment: as above; details: control compound, footnote b: data for SCH772984
T2 construct: purchased Reaction Biology Corp. (Kinase HotSpot service)

[4] = biological target: T3, RIPK3 (Homo sapiens, UniProt Q9Y572); experiment: as above; details: read-out: GW5074 IC50, control compound, footnote a: data for GW5074
T3 construct: purchased Reaction Biology Corp. (Kinase HotSpot service)
T3 sequence (Q9Y572 whole entry): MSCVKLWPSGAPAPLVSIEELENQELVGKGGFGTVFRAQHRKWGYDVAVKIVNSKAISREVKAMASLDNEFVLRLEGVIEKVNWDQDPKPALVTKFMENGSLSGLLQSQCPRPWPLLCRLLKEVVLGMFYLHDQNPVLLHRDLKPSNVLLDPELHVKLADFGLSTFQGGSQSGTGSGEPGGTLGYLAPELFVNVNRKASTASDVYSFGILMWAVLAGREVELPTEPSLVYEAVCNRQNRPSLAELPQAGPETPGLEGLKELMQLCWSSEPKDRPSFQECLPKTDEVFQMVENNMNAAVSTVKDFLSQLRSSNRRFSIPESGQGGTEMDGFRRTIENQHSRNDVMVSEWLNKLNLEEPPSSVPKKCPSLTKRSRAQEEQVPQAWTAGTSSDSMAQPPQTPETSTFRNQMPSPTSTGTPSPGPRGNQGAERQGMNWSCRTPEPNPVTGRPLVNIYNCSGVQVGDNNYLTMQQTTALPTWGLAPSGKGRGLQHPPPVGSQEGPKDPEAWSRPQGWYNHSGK

T2 sequence (P27361 whole entry): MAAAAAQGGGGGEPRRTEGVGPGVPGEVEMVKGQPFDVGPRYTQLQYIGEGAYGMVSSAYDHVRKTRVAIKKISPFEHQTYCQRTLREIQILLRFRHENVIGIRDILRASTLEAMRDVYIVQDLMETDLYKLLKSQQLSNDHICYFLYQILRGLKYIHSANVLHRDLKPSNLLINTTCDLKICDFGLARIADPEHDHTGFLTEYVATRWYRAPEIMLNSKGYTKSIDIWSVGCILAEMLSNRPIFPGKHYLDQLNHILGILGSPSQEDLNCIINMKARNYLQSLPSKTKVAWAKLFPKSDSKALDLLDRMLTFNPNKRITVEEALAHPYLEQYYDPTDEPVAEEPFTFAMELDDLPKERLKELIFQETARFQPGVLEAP

`Cc1oncc1C(=O)Nc1ccc2cnc(-c3cc(N4CCOCC4)cc(C(F)(F)F)c3)nc2c1` [Compound 7b] was tested, and the “activity on other kinases in panel (in words)” value [1] was “almost no activity”, the “inhibitory activity towards FLT3 (in words)” value [2] was “maintained the activity; also recorded: maintained inhibitory activity” and the IC50 [2] was 3980 nM.
`Cc1oncc1C(=O)Nc1ccc2cnc(-c3ccccn3)nc2c1` [Compound 7q] was tested, and the “inhibitory activity towards FLT3 (in words)” value [2] was “did not show inhibitory activity towards FLT3 or were very weak”.
In the case of `O=C(Nc1ccc2[nH]nc(-c3ccncc3)c2c1)[C@@H]1CCN(CC(=O)N2CCN(c3ccc(-c4ncccn4)cc3)CC2)C1` [SCH772984, reference compound], the IC50 [3] is reported as 4.47 nM.
`Cc1oncc1C(=O)Nc1ccc2cnc(-c3ccc4[nH]ncc4c3)nc2c1` [Compound 7m] was tested, and the “inhibitory activity towards FLT3 (in words)” value [2] was “maintained inhibitory activity” and the IC50 [2] was 790 nM.
With `COc1ccc(/C=C/c2ncc3ccc(NC(=O)c4cnoc4C)cc3n2)cc1` [Compound 7j] the “inhibitory activity towards FLT3 (in words)” value [2] was “maintained inhibitory activity” and the IC50 [2] was 4700 nM.
For `CC(=O)N1CCC(c2ncc3ccc(NC(=O)c4cnoc4C)cc3n2)CC1` [Compound 7o], the “inhibitory activity towards FLT3 (in words)” value [2] was “did not show inhibitory activity towards FLT3 or were very weak”.
`O=C1Nc2ccc(I)cc2/C1=C/c1cc(Br)c(O)c(Br)c1` [GW5074, reference compound] showed an IC50 [4] of 1650 nM.
With `Cc1oncc1C(=O)Nc1ccc2cnc(-c3cc(OC4CCN(C)CC4)cc(C(F)(F)F)c3)nc2c1` [Compound 7n] the “inhibitory activity towards FLT3 (in words)” value [2] was “maintained the activity; also recorded: maintained inhibitory activity” and the IC50 [2] was 3590 nM.
In the case of `Cc1oncc1C(=O)Nc1ccc2cnc(-c3ccncc3)nc2c1` [Compound 7p], the “inhibitory activity towards FLT3 (in words)” value [2] is reported as “did not show inhibitory activity towards FLT3 or were very weak”.
With `Cc1cn(-c2cc(-c3ncc4ccc(NC(=O)c5cnoc5C)cc4n3)cc(C(F)(F)F)c2)cn1` [Compound 7c] the “inhibitory activity towards FLT3 (in words)” value [2] was “maintained the activity; also recorded: maintained inhibitory activity” and the IC50 [2] was 1580 nM.
For `Cc1oncc1C(=O)Nc1ccc2cnc(-c3cc(C(C)(C)C)on3)nc2c1` [Compound 7l], the “inhibitory activity towards FLT3 (in words)” value [2] was “did not show inhibitory activity towards FLT3 or were very weak”.
For `CCN1CCN(Cc2cc(-c3ncc4ccc(NC(=O)c5cnoc5C)cc4n3)cc(C(F)(F)F)c2)CC1` [Compound 7e], the “inhibitory activity towards FLT3 (in words)” value [2] was “maintained the activity; also recorded: maintained inhibitory activity” and the “decrease of activity towards FLT3 relative to 7d” value ([2]; compared with 7d) was “about 10 fold”.
For `Cc1oncc1C(=O)Nc1ccc2cnc(-c3cnn(-c4ccccc4)c3C(F)(F)F)nc2c1` [Compound 7h], the “inhibitory activity towards FLT3 (in words)” value [2] was “loss of activity”.
